Patent US20230085307A1, “PYRIDAZINONE COMPOUND AND HERBICIDE” (NISSAN CHEMICAL CORPORATION, priority 2019, published 2023)

Assays:
barnyard grass [1] = assay: Test Example 5: herbicidal effect by foliage application, plastic box (Table 20, symbol H); format: in vivo, barnyard grass (Echinochloa crus-galli); settings: amount of applied herbicide 320 g/ha; foliage application after 14-day growth; evaluated three weeks after application
In short: (§1)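 Post-emergence foliar test in sterilized diluvial soil. Compound applied as water-diluted emulsion at a predetermined rate to 14-day-old plants; evaluation at three weeks.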

persian speedwell [2] = assay: Test Example 4: herbicidal effect by soil treatment (Table 19, symbol R); format: in vivo, Persian speedwell (Veronica persica); settings: amount of applied herbicide 320 g/ha
In short: (§2)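 Scoring uses the grading scale of an earlier test, three weeks post-application. Treatment consists of spraying a diluted emulsion formulation across the surface of sterilized diluvial soil in which seeds are buried near 1.5 cm deep; boxes are kept in a greenhouse between 25° C. and 30° C.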

wild oat [3] = assay: Test Example 4: herbicidal effect by soil treatment (Table 19, symbol I); format: in vivo, wild oat (Avena fatua); settings: amount of applied herbicide 320 g/ha
In short: as §2

redroot pigweed [4] = assay: Test Example 4: herbicidal effect by soil treatment (Table 19, symbol N); format: in vivo, redroot pigweed (Amaranthus retroflexus); settings: amount of applied herbicide 320 g/ha
In short: as §2

lambsquarters [5] = assay: Test Example 4: herbicidal effect by soil treatment (Table 19, symbol O); format: in vivo, lambsquarters (Chenopodium album); settings: amount of applied herbicide 320 g/ha
In short: as §2

green foxtail [6] = assay: Test Example 4: herbicidal effect by soil treatment (Table 19, symbol G); format: in vivo, green foxtail (Setaria viridis); settings: amount of applied herbicide 320 g/ha
In short: as §2

oval-leafed pondweed = assay: Test Example 1: herbicidal activity, application before weed generation under submerged conditions (Table 16, symbol C); format: in vivo, oval-leafed pondweed (Monochoria vaginalis); settings: amount of applied herbicide 320 g/ha
In short: (§3)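 Submerged Wagner pots (alluvial soil, 4 cm water) sown with weed seeds and planted with 2.5-leaf rice seedlings; emulsifiable concentrate diluted in water applied to water surface on sowing day. Held in greenhouse at 25-30 °C; injury scored 0-5 by herbicidal rate after three weeks.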

lambsquarters [7] = assay: Test Example 5: herbicidal effect by foliage application, plastic box (Table 20, symbol O); format: in vivo, lambsquarters (Chenopodium album); settings: amount of applied herbicide 320 g/ha; foliage application after 14-day growth; evaluated three weeks after application
In short: as §1

chickweed [8] = assay: Test Example 4: herbicidal effect by soil treatment (Table 19, symbol P); format: in vivo, common chickweed (Stellaria media); settings: amount of applied herbicide 320 g/ha
In short: as §2

redroot pigweed [9] = assay: Test Example 5: herbicidal effect by foliage application, plastic box (Table 20, symbol N); format: in vivo, redroot pigweed (Amaranthus retroflexus); settings: amount of applied herbicide 320 g/ha; foliage application after 14-day growth; evaluated three weeks after application
In short: as §1

Italian ryegrass [10] = assay: Test Example 4: herbicidal effect by soil treatment (Table 19, symbol K); format: in vivo, Italian ryegrass (Lolium multiflorum); settings: amount of applied herbicide 320 g/ha
In short: as §2

Japanese bulrush = assay: Test Example 1: herbicidal activity, application before weed generation under submerged conditions (Table 16, symbol B); format: in vivo, Japanese bulrush (Schoenoplectus juncoides); settings: amount of applied herbicide 320 g/ha
In short: as §3

late watergrass = assay: Test Example 1: herbicidal activity, application before weed generation under submerged conditions (Table 16, symbol A); format: in vivo, late watergrass (Echinochloa oryzicola); settings: amount of applied herbicide 320 g/ha
In short: as §3

velvetleaf [11] = assay: Test Example 4: herbicidal effect by soil treatment (Table 19, symbol M); format: in vivo, velvetleaf (Abutilon theophrasti); settings: amount of applied herbicide 320 g/ha
In short: as §2

rice flat sedge = assay: Test Example 3: herbicidal effect by foliage application, Wagner pot (Table 18, symbol E); format: in vivo, rice flat sedge (Cyperus iria); settings: 320 g/ha
In short: (§4)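 Plants were sown in alluvial soil held under 0.1–0.5 cm standing water and grown 14 days in a greenhouse at 25–30 °C. An emulsifiable formulation, water-diluted to the set dose, was then sprayed onto the foliage, and effects were scored three weeks later using previously defined criteria.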

velvetleaf [12] = assay: Test Example 5: herbicidal effect by foliage application, plastic box (Table 20, symbol M); format: in vivo, velvetleaf (Abutilon theophrasti); settings: amount of applied herbicide 320 g/ha; foliage application after 14-day growth; evaluated three weeks after application
In short: as §1

blackgrass [13] = assay: Test Example 5: herbicidal effect by foliage application, plastic box (Table 20, symbol J); format: in vivo, blackgrass (Alopecurus myosuroides); settings: amount of applied herbicide 320 g/ha; foliage application after 14-day growth; evaluated three weeks after application
In short: as §1

wild oat [14] = assay: Test Example 5: herbicidal effect by foliage application, plastic box (Table 20, symbol I); format: in vivo, wild oat (Avena fatua); settings: amount of applied herbicide 320 g/ha; foliage application after 14-day growth; evaluated three weeks after application
In short: as §1

southern crabgrass [15] = assay: Test Example 5: herbicidal effect by foliage application, plastic box (Table 20, symbol F); format: in vivo, southern crabgrass (Digitaria ciliaris); settings: amount of applied herbicide 320 g/ha; foliage application after 14-day growth; evaluated three weeks after application
In short: as §1

windgrass [16] = assay: Test Example 4: herbicidal effect by soil treatment (Table 19, symbol L); format: in vivo, windgrass (Apera spica-venti); settings: amount of applied herbicide 320 g/ha
In short: as §2

barnyard grass [17] = assay: Test Example 4: herbicidal effect by soil treatment (Table 19, symbol H); format: in vivo, barnyard grass (Echinochloa crus-galli); settings: amount of applied herbicide 320 g/ha
In short: as §2

barnyard grass [18] = assay: Test Example 3: herbicidal effect by foliage application, Wagner pot (Table 18, symbol H); format: in vivo, barnyard grass (Echinochloa crus-galli); settings: 320 g/ha
In short: as §4

green foxtail [19] = assay: Test Example 5: herbicidal effect by foliage application, plastic box (Table 20, symbol G); format: in vivo, green foxtail (Setaria viridis); settings: amount of applied herbicide 320 g/ha; foliage application after 14-day growth; evaluated three weeks after application
In short: as §1

Italian ryegrass [20] = assay: Test Example 5: herbicidal effect by foliage application, plastic box (Table 20, symbol K); format: in vivo, Italian ryegrass (Lolium multiflorum); settings: amount of applied herbicide 320 g/ha; foliage application after 14-day growth; evaluated three weeks after application
In short: as §1

persian speedwell [21] = assay: Test Example 5: herbicidal effect by foliage application, plastic box (Table 20, symbol R); format: in vivo, Persian speedwell (Veronica persica); settings: amount of applied herbicide 320 g/ha; foliage application after 14-day growth; evaluated three weeks after application
In short: as §1

windgrass [22] = assay: Test Example 5: herbicidal effect by foliage application, plastic box (Table 20, symbol L); format: in vivo, windgrass (Apera spica-venti); settings: amount of applied herbicide 320 g/ha; foliage application after 14-day growth; evaluated three weeks after application
In short: as §1

blackgrass [23] = assay: Test Example 4: herbicidal effect by soil treatment (Table 19, symbol J); format: in vivo, blackgrass (Alopecurus myosuroides); settings: amount of applied herbicide 320 g/ha
In short: as §2

chickweed [24] = assay: Test Example 5: herbicidal effect by foliage application, plastic box (Table 20, symbol P); format: in vivo, common chickweed (Stellaria media); settings: amount of applied herbicide 320 g/ha; foliage application after 14-day growth; evaluated three weeks after application
In short: as §1

Chinese sprangletop = assay: Test Example 3: herbicidal effect by foliage application, Wagner pot (Table 18, symbol D); format: in vivo, chinese sprangletop (Leptochloa chinensis); settings: 320 g/ha
In short: as §4

southern crabgrass [25] = assay: Test Example 4: herbicidal effect by soil treatment (Table 19, symbol F); format: in vivo, southern crabgrass (Digitaria ciliaris); settings: amount of applied herbicide 320 g/ha
In short: as §2

| SMILES | Herbicidal effect by foliage application, H: barnyard grass (barnyard grass [1]) | R: persian speedwell, herbicidal effect grade (persian speedwell [2]) | I: wild oat, herbicidal effect grade (wild oat [3]) | N: redroot pigweed, herbicidal effect grade (redroot pigweed [4]) | O: lambsquarters, herbicidal effect grade (lambsquarters [5]) | G: green foxtail, herbicidal effect grade (green foxtail [6]) | Herbicidal effect, C: oval-leafed pondweed (oval-leafed pondweed) | Herbicidal effect by foliage application, O: lambsquarters (lambsquarters [7]) | P: chickweed, herbicidal effect grade (chickweed [8]) | Herbicidal effect by foliage application, N: redroot pigweed (redroot pigweed [9]) | K: Italian ryegrass, herbicidal effect grade (Italian ryegrass [10]) | Herbicidal effect, B: Japanese bulrush (Japanese bulrush) | Herbicidal effect, A: late watergrass (late watergrass) | M: velvetleaf, herbicidal effect grade (velvetleaf [11]) | herbicidal effect on rice flat sedge (E) (rice flat sedge) | Herbicidal effect by foliage application, M: velvetleaf (velvetleaf [12]) | Herbicidal effect by foliage application, J: blackgrass (blackgrass [13]) | Herbicidal effect by foliage application, I: wild oat (wild oat [14]) | Herbicidal effect by foliage application, F: southern crabgrass (southern crabgrass [15]) | L: windgrass, herbicidal effect grade (windgrass [16]) | other results |
| --- | --- | --- | --- | --- | --- | --- | --- | --- | --- | --- | --- | --- | --- | --- | --- | --- | --- | --- | --- | --- | --- |
| CCCC(=O)Oc1c(C)nn(C)c(=O)c1-c1c(-c2ccc(OC)cc2)sc2cc(F)c(F)cc12 [5-015] | 0 (Herbicidal rate of 5% or less (almost no effect)) | 5 (Herbicidal rate of 90% or more (almost completely withered)) | 0 (Herbicidal rate of 5% or less (almost no effect)) | 4 (Herbicidal rate of 70% or more and less than 90%) | 4 (Herbicidal rate of 70% or more and less than 90%) | 0 (Herbicidal rate of 5% or less (almost no effect)) | 0 (Herbicidal rate of 5% or less (almost no effect)) | 5 (Herbicidal rate of 90% or more (almost completely withered)) | 3 (Herbicidal rate of 40% or more and less than 70%) | 5 (Herbicidal rate of 90% or more (almost completely withered)) | 0 (Herbicidal rate of 5% or less (almost no effect)) | 0 (Herbicidal rate of 5% or less (almost no effect)) | 3 (Herbicidal rate of 40% or more and less than 70%) | 0 (Herbicidal rate of 5% or less (almost no effect)) | 3 (Herbicidal rate of 40% or more and less than 70%) | 4 (Herbicidal rate of 70% or more and less than 90%) | 0 (Herbicidal rate of 5% or less (almost no effect)) | 0 (Herbicidal rate of 5% or less (almost no effect)) | 0 (Herbicidal rate of 5% or less (almost no effect)) | 0 (Herbicidal rate of 5% or less (almost no effect)) | H: barnyard grass, herbicidal effect grade (barnyard grass [17]): 0 (Herbicidal rate of 5% or less (almost no effect)); herbicidal effect on barnyard grass (H) (barnyard grass [18]): 2 (Herbicidal rate of 20% or more and less than 40%); Herbicidal effect by foliage application, G: green foxtail (green foxtail [19]): 0 (Herbicidal rate of 5% or less (almost no effect)); Herbicidal effect by foliage application, K: Italian ryegrass (Italian ryegrass [20]): 0 (Herbicidal rate of 5% or less (almost no effect)); Herbicidal effect by foliage application, R: persian speedwell (persian speedwell [21]): 5 (Herbicidal rate of 90% or more (almost completely withered)); Herbicidal effect by foliage application, L: windgrass (windgrass [22]): 0 (Herbicidal rate of 5% or less (almost no effect)); J: blackgrass, herbicidal effect grade (blackgrass [23]): 0 (Herbicidal rate of 5% or less (almost no effect)); Herbicidal effect by foliage application, P: chickweed (chickweed [24]): 5 (Herbicidal rate of 90% or more (almost completely withered)); herbicidal effect on Chinese sprangletop (D) (Chinese sprangletop): 2 (Herbicidal rate of 20% or more and less than 40%); F: southern crabgrass, herbicidal effect grade (southern crabgrass [25]): 0 (Herbicidal rate of 5% or less (almost no effect)) |
| Cc1nn(C)c(=O)c(-c2c(-c3ccc(OC(C)C)cc3)sc3cc(F)c(F)cc23)c1O [5-019] | 4 (Herbicidal rate of 70% or more and less than 90%) | 4 (Herbicidal rate of 70% or more and less than 90%) | 0 (Herbicidal rate of 5% or less (almost no effect)) | 4 (Herbicidal rate of 70% or more and less than 90%) | 2 (Herbicidal rate of 20% or more and less than 40%) | 3 (Herbicidal rate of 40% or more and less than 70%) | 0 (Herbicidal rate of 5% or less (almost no effect)) | 3 (Herbicidal rate of 40% or more and less than 70%) | 1 (Herbicidal rate of 5% or more and less than 20%) | 5 (Herbicidal rate of 90% or more (almost completely withered)) | 0 (Herbicidal rate of 5% or less (almost no effect)) | 0 (Herbicidal rate of 5% or less (almost no effect)) | 3 (Herbicidal rate of 40% or more and less than 70%) | 3 (Herbicidal rate of 40% or more and less than 70%) | 1 (Herbicidal rate of 5% or more and less than 20%) | 4 (Herbicidal rate of 70% or more and less than 90%) | 0 (Herbicidal rate of 5% or less (almost no effect)) | 0 (Herbicidal rate of 5% or less (almost no effect)) | 4 (Herbicidal rate of 70% or more and less than 90%) | 0 (Herbicidal rate of 5% or less (almost no effect)) | H: barnyard grass, herbicidal effect grade (barnyard grass [17]): 0 (Herbicidal rate of 5% or less (almost no effect)); herbicidal effect on barnyard grass (H) (barnyard grass [18]): 4 (Herbicidal rate of 70% or more and less than 90%); Herbicidal effect by foliage application, G: green foxtail (green foxtail [19]): 4 (Herbicidal rate of 70% or more and less than 90%); Herbicidal effect by foliage application, K: Italian ryegrass (Italian ryegrass [20]): 3 (Herbicidal rate of 40% or more and less than 70%); Herbicidal effect by foliage application, R: persian speedwell (persian speedwell [21]): 5 (Herbicidal rate of 90% or more (almost completely withered)); Herbicidal effect by foliage application, L: windgrass (windgrass [22]): 0 (Herbicidal rate of 5% or less (almost no effect)); J: blackgrass, herbicidal effect grade (blackgrass [23]): 0 (Herbicidal rate of 5% or less (almost no effect)); Herbicidal effect by foliage application, P: chickweed (chickweed [24]): 5 (Herbicidal rate of 90% or more (almost completely withered)); herbicidal effect on Chinese sprangletop (D) (Chinese sprangletop): 0 (Herbicidal rate of 5% or less (almost no effect)); F: southern crabgrass, herbicidal effect grade (southern crabgrass [25]): 0 (Herbicidal rate of 5% or less (almost no effect)) |
